Experimental data reported in PMC10223992, “In Silico-Motivated Discovery of Novel Potent Glycogen Synthase-3 Inhibitors: 1-(Alkyl/arylamino)-3H-naphtho[1,2,3-de]quinoline-2,7-dione Identified as a Scaffold for Kinase Inhibitor Development” (Pharmaceuticals, 2023).
Several values for one entry are separate records, joined by “and”; a condition that tells them apart may be missing. Equal values may be shown once.

Target: T1, Homo sapiens GSK-3β (Homo sapiens, UniProt P49841)
T1 construct: purchased MRC Protein Phosphorylation & Ubiquitylation Unit, University of Dundee (screening service)
Assay: in vitro GSK-3β binding assay (kinase inhibition, MRC PPU Dundee)
Format: biochemical
Conditions: in vitro binding assay, duplicate
Protocol: (§1) All predicted inhibitors for testing (except compound 3) were purchased from Vitas-M Laboratory, with purity ≥ 90%. Compound 3 was purchased from Biosynth Carbosynth with purity of 95%. Binding assay experiments against Homo sapiens GSK-3β were performed using a specialist service from the MRC Protein Phosphorylation & Ubiquitylation Unit at the University of Dundee (http://www.kinase-screen.mrc.ac.uk/ (accessed on 1 April 2023)). Initial assays underwent single concentration screening at 50 µM concentrations to determine those compounds showing the best inhibitory potential. Inhibitory activities were calculated based on maximal activities measured in the absence of an inhibitor. […] In the kinase selectivity panel screening for 14 and 19, the compounds were assayed at single concentration (50 μM) against CDK2, CDK5, CDK9, ERK1, ERK2, PKA, PKBβ, PKCα, PKCγ, GSK-3α, and GSK-3β. All binding assay experiments were performed in duplicate.

T1 sequence (P49841 whole entry): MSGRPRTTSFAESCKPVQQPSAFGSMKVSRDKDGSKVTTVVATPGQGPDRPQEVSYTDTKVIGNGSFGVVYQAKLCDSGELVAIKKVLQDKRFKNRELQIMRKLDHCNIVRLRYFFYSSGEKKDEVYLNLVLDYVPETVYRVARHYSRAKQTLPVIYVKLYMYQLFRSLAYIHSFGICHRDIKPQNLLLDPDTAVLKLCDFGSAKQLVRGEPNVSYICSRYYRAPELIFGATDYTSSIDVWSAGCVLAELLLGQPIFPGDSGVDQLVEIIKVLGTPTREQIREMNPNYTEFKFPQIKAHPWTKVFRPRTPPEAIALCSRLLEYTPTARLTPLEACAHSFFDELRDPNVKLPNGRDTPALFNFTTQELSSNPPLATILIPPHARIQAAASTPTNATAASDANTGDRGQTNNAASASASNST

Compound	IC50
COc1ccc(Nc2c3c4c(c(Br)ccc4n(C)c2=O)C(=O)c2ccccc2-3)cc1 [Compound 17]	14000 ± 3100 nM
COc1ccc([C@@H]2CC(=O)Nc3cccc4c3c2cn4Cc2ccccc2)c(OC)c1 [Compound 4, (R)-1-benzyl-3-(2,4-dimethoxyphenyl)-1,3,4,6-tetrahydro-5H-azepino[4,3,2-cd]indol-5-one]	87500 ± 9170 nM
Cn1c(=O)c(NCCO)c2c3c(cccc31)C(=O)c1ccccc1-2 [Compound 21]	17000 ± 2700 nM
Cc1cc(C)cc(Nc2c3c4c(cccc4[nH]c2=O)C(=O)c2ccccc2-3)c1 [Compound 14]	< 10000 nM and 9100 nM
O=C1c2ccccc2-c2c(NC3CCCCC3)c(=O)[nH]c3cccc1c23 [Compound 18]	25300 ± 3500 nM
Nc1c2c3c(cccc3[nH]c1=O)C(=O)c1ccccc1-2 [Compound 22]	36700 ± 5700 nM
COc1cccc2c1cc1c3c(cc4c(c32)OCO4)C(=O)N1 [Compound 3, 8-methoxy-[1,3]dioxolo[4′,5′:4,5]benzo[1,2,3-cd]benzo[f]indol-5(6H)-one]	63700 ± 3300 nM
COCCCNc1c(O)nc2cccc3c2c1-c1ccccc1C3=O [Compound 20]	< 10000 nM and 9100 nM
Cc1ccc(Nc2c3c4c(cccc4[nH]c2=O)C(=O)c2ccccc2-3)cc1 [Compound 13]	< 10000 nM and 9400 nM
COc1ccc(Nc2c3c4c(cccc4[nH]c2=O)C(=O)c2ccccc2-3)cc1 [Compound 15]	11400 ± 600 nM
CCCCNc1c2c3c(cccc3[nH]c1=O)C(=O)c1ccccc1-2 [Compound 19]	< 10000 nM and 4900 nM
Nc1ccc2ncnc3c2c1C(=O)c1ccccc1-3 [Compound 1, 6-amino-7H-benzo[e]perimidin-7-one]	1630 ± 300 nM
COc1ccccc1Nc1c2c3c(cccc3n(C)c1=O)C(=O)c1ccccc1-2 [Compound 16]	27100 ± 1100 nM
O=C1c2ccccc2-c2c(Nc3ccccc3)c(O)nc3cccc1c23 [Compound 2, 1-(phenylamino)-3H-naphtho[1,2,3-de]quinoline-2,7-dione]	20600 ± 3800 nM

Same assay, conditions: single concentration 50 µM

Compound	inhibition at 50 µM
O=C1Nc2ccccc2C(=O)N2c3ccccc3C[C@@H]12 [Compound 5, (S)-12a,13-dihydro-6H-benzo[5,6][1,4]diazepino[1,2-a]indole-6,12(11H)-dione]	20%
CN(C)CCn1cnc2c1c(=O)[nH]c(=O)n2Cc1ccccc1 [Compound 6, 3-benzyl-7-(2-(dimethylamino)ethyl)-3,7-dihydro-1H-purine-2,6-dione]	11%
O=C1N/C(=C/c2ccccc2)C(=O)N2Cc3ccccc3C[C@@H]12 [Compound 8, (S,E)-3-benzylidene-2,3,11,11a-tetrahydro-4H-pyrazino[1,2-b]isoquinoline-1,4(6H)-dione]	10%
O=C1Nc2cc(Cl)ccc2/C1=C/c1cccc2[nH]ccc12 [Compound 12, (Z)-3-((1H-indol-4-yl)methylene)-6-chloroindolin-2-one]	< 0%
Cc1coc2cc3oc(=O)c(CC(=O)N[C@H]4CCCc5c4[nH]c4ccccc54)c(C)c3cc12 [Compound 7, (S)-2-(3,5-dimethyl-7-oxo-7H-furo[3,2-g]chromen-6-yl)-N-(2,3,4,9-tetrahydro-1H-carbazol-1-yl)acetamide]	10%
COc1cc2c(cc1OC)[C@@H](c1c(O)[nH]c(=O)n(-c3ccc(C)c(C)c3)c1=O)NCC2 [Compound 11, (S)-5-(6,7-dimethoxy-1,2,3,4-tetrahydroisoquinolin-1-yl)-3-(3,4-dimethylphenyl)-6-hydroxypyrimidine-2,4(1H,3H)-dione]	2%
Cc1ccc2c(c1)[C@]1(N[C@@H]([C@@H](C)O)[C@H]3C(=O)N(Cc4ccc5c(c4)OCO5)C(=O)[C@H]31)C(=O)N2 [Compound 10, (3S,3′R,3a′S,6a′R)-5′-(benzo[d][1,3]dioxol-5-ylmethyl)-3′-((R)-1-hydroxyethyl)-5-methyl-2′,3′,3a′,6a′-tetrahydro-4′H-spiro[indoline-3,1′-pyrrolo[3,4-c]pyrrole]-2,4′,6′(5′H)-trione]	6%
COc1ccc(Cn2cnc3c([nH]c4ccccc43)c2=O)cc1OC [Compound 9, 3-(3,4-dimethoxybenzyl)-3,5-dihydro-4H-pyrimido[5,4-b]indol-4-one]	9%

Same assay, conditions: single-dose profiling 50 μM

Compound	% remaining activity (GSK-3β)
Cc1cc(C)cc(Nc2c3c4c(cccc4[nH]c2=O)C(=O)c2ccccc2-3)c1 [Compound 14]	< 50%
CCCCNc1c2c3c(cccc3[nH]c1=O)C(=O)c1ccccc1-2 [Compound 19]	< 50%

Target: GSK-3α (Homo sapiens, UniProt P49840)
Assay: kinase selectivity screening, GSK-3α
Format: biochemical
Conditions: not given
Protocol: as §1

GSK-3α, sequence (P49840 whole entry, species assumed): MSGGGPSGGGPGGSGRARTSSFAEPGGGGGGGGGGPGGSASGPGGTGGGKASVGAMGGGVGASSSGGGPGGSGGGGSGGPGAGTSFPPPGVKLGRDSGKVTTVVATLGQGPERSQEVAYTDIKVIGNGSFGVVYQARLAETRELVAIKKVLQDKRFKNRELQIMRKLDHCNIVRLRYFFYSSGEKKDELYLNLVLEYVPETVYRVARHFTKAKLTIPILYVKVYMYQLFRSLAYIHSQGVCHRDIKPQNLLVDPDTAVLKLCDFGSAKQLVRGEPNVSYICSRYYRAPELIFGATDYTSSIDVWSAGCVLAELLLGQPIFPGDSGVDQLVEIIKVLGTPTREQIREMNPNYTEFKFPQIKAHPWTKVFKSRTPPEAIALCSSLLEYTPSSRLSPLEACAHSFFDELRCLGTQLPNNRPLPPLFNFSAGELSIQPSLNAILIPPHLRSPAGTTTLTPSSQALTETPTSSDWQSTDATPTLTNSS

Compound	IC50
Cc1cc(C)cc(Nc2c3c4c(cccc4[nH]c2=O)C(=O)c2ccccc2-3)c1 [Compound 14]	2300 ± 400 nM
CCCCNc1c2c3c(cccc3[nH]c1=O)C(=O)c1ccccc1-2 [Compound 19]	1700 ± 100 nM

Same assay, conditions: single-dose profiling 50 μM

Compound	% remaining activity (GSK-3α)
Cc1cc(C)cc(Nc2c3c4c(cccc4[nH]c2=O)C(=O)c2ccccc2-3)c1 [Compound 14]	< 50%
CCCCNc1c2c3c(cccc3[nH]c1=O)C(=O)c1ccccc1-2 [Compound 19]	< 50%

Target: PKBβ (Homo sapiens, UniProt P31751)
Assay: kinase selectivity screening, PKBβ
Format: biochemical
Conditions: not given
Protocol: as §1

PKBβ, sequence (P31751 whole entry, species assumed): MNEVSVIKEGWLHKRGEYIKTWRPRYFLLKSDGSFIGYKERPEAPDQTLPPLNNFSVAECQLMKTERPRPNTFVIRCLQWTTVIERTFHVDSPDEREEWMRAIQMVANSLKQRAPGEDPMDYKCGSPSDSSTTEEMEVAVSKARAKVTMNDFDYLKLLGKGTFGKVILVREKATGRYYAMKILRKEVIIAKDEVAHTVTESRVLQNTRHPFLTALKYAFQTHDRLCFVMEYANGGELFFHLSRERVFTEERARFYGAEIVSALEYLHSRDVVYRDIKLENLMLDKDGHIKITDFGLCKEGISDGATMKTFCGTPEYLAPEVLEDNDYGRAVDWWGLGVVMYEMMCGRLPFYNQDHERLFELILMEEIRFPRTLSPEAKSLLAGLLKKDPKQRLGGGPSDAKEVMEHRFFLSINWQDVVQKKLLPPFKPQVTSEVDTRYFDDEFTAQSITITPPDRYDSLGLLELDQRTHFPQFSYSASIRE

Compound	IC50
Cc1cc(C)cc(Nc2c3c4c(cccc4[nH]c2=O)C(=O)c2ccccc2-3)c1 [Compound 14]	14900 ± 1500 nM
CCCCNc1c2c3c(cccc3[nH]c1=O)C(=O)c1ccccc1-2 [Compound 19]	24600 ± 200 nM

Target: ERK2 (Homo sapiens, UniProt P28482)
Assay: kinase selectivity screening, ERK2
Format: biochemical
Conditions: not given
Protocol: as §1

ERK2, sequence (P28482 whole entry, species assumed): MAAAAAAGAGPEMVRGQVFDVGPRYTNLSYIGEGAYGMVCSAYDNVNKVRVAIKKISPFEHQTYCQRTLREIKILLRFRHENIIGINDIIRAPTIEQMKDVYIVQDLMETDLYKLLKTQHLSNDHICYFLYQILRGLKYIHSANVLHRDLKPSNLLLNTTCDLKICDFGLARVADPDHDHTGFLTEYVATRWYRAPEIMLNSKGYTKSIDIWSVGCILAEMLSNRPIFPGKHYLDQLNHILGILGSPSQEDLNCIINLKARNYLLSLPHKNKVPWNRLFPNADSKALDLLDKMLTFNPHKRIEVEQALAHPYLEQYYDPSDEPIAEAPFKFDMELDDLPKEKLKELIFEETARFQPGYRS

Compound	IC50
Cc1cc(C)cc(Nc2c3c4c(cccc4[nH]c2=O)C(=O)c2ccccc2-3)c1 [Compound 14]	21300 nM

Target: PKCγ (Homo sapiens, UniProt P05129)
Assay: kinase selectivity screening, PKCγ
Format: biochemical
Conditions: not given
Protocol: as §1

Compound	IC50
CCCCNc1c2c3c(cccc3[nH]c1=O)C(=O)c1ccccc1-2 [Compound 19]	11000 ± 1500 nM

System: GSK-3β
Assay: not given
Parameters: method as in ChEMBL database [53]
Conditions: Table S1, ChEMBL data; ref ChEMBL database [53]; read-out: IC50 (GSK-3β, known actives); cited from earlier work

Compound	IC50
O=C1Nc2ccccc2/C1=C/c1ccccn1 [CHEMBL2094331]	4.19 nM
COc1ccc(-n2cnc3ccc(-c4nnc(SCc5cccc(C(F)(F)F)c5)o4)cc32)cc1 [CHEMBL513570]	2.5 nM
C=CCOC(=O)c1cc(-c2ccc(/C=C3/NC(=S)NC3=O)o2)ccc1Cl [CHEMBL4568120]	218 nM
COc1ccc(-c2ocnc2C(=O)NCc2ccn3ccnc3c2)cc1Cl [CHEMBL1957231]	5.01 nM
COc1cc(F)cc(F)c1C1CN(c2nc(-c3ccncn3)cc(=O)n2C)CCN1 (centres unmarked) [CHEMBL4071429]	1.7 nM
OCC/N=c1\nc(-c2ccccc2)n(-c2cccc3ccccc23)s1 [CHEMBL2022413]	300 nM
O=C(/C=C/c1cnc2[nH]cc(-c3ccccc3)c2c1)NCCN1CCOCC1 [CHEMBL3891139]	46 nM
Clc1ccccc1-c1cc(NCOc2cccnc2)n2ncc(Br)c2n1 [CHEMBL398621]	35 nM
COc1ccc(-c2oc3ncnc(N)c3c2-c2cccnc2)cc1 [CHEMBL361567]	80 nM
O=CN1Cc2cccc3c(C4=C(c5cnc6ccccn56)C(=O)NC4=O)cn(c23)CC1N1CCOCC1 (centres unmarked) [CHEMBL4162850]	1.3 nM
COc1cc(C2=C(c3cn(CCN4CCN(C)CC4)c4ccccc34)C(=O)NC2=O)c2occc2c1 [CHEMBL564450]	0.14 nM
Cc1ccc(-c2c[nH]c(C3COCCN3Cc3c[nH]c4ccccc34)n2)cc1 (centres unmarked) [CHEMBL2297166]	120 nM
Cc1ccccc1-n1cc(-c2ccccn2)nn1 [CHEMBL1938959]	490 nM
COc1ccc2c(c1C(C)N1CCNCC1)O/C(=C\c1n[nH]c3ncccc13)C2=O (centres unmarked) [CHEMBL3735890]	6.1 nM
COc1ccc(Nc2nnc(-c3ccc(C(F)(F)F)cc3)o2)cc1 [CHEMBL1630483]	53 nM
O=c1[nH]cnc2[nH]c(-c3ccnc(/C=C/c4ccc(CN5CCOCC5)cc4)c3)cc12 [CHEMBL461139]	300 nM
N#Cc1ccc2[nH]c(O)c(-c3ccc(CN4CCOCC4)cn3)c2c1 [CHEMBL1969664]	31 nM
O=C1Nc2ccccc2/C1=C1/Nc2cc(Br)ccc2C1=O [CHEMBL1830063]	4 nM
COc1cccc(-n2ncc3c(N/N=C/c4ccc(OCCN(C)C)cc4)ncnc32)c1 [CHEMBL303321]	6.31 nM

Compound	IC50
O=C1Cc2cc(Br)ccc2/C1=c1/[nH]c2ccccc2/c1=C\O [CHEMBL4077172]	5 nM
CCc1ccc(-n2cc(CSc3nnc(Cn4c(C(F)(F)F)nc5ccccc54)o3)nn2)cc1 [CHEMBL4643895]	390 nM
COc1ccc(-c2cc(-c3ccc(F)cc3)[nH]c(=O)c2O)cc1 [CHEMBL1630451]	325 nM
Cc1ccc(-n2cc(CSC3=NC(c4ccccc4)CC(=O)N3C)nn2)cc1C (centres unmarked) [CHEMBL4635819]	82 nM
COc1ccc(-c2cc3c(NC(=O)CC4CCCC4)ncnc3o2)cc1 [CHEMBL182891]	320 nM
Fc1cnc2[nH]nc(Nc3cc(C(F)(F)F)cc(-c4ccccc4Cl)n3)c2c1 [CHEMBL3661029]	50 nM
COc1cccc(Nc2nccc(C3=C(c4ccccc4)NN4C=CC=CC34)n2)c1 (centres unmarked) [CHEMBL403405]	30 nM
CCOC(=O)C/N=c1\nc(-c2ccc(OC)cc2)n(-c2ccccc2)s1 [CHEMBL2024372]	500 nM
C[C@@H]1C[C@H]2CN1CCn1nc3c(cccc3c1O)-c1nc3c(cccc3nc1O)O2 [CHEMBL215803]	13 nM
O=C(CCl)c1scc(Br)c1Br [CHEMBL357136]	500 nM
O=C(NCCc1cccnc1Cl)c1ccnc2[nH]c(-c3ccoc3)nc12 [CHEMBL2048673]	9 nM
Cc1[nH]c2ccccc2c1C1=C(NCCc2ccc(F)cc2)C(=O)N(C)C1=O [CHEMBL1254896]	53 nM
COc1ccncc1-c1ccc2[nH]nc(C(=O)NCC3CCN(CCc4ccccc4)CC3)c2c1 [CHEMBL3735603]	20 nM
Oc1ccc(Nc2ncnc3[nH]cnc23)cc1CN(CCCl)CCCl [CHEMBL1630434]	10.8 nM
Nc1c(Br)cc(C(=O)C(Br)Br)cc1Br [CHEMBL1801628]	500 nM
O=C(NC1CCNCC1)c1n[nH]cc1NC(=O)c1c(Cl)cccc1Cl [CHEMBL445813]	200 nM

Same assay, conditions: read-out: IC50 (GSK-3β, known actives); cited from earlier work

Compound	IC50
Cc1nn(-c2ccc(Cl)cc2Cl)c2c1c1c(c3cccn32)C(=O)NC1=O [CHEMBL3110144]	240 nM
CN(C)C[C@@H](OC(=O)N1Cc2c(NC(=O)C(C)(C)C)n[nH]c2C1(C)C)c1ccccc1 [CHEMBL2064628]	227 nM
